The target in this assay is F508del-CFTR (Homo sapiens, UniProt P13569, DEL508-508). Put plainly: Ussing chamber short-circuit current, acute cumulative dose response. The format is cell-based.

As to EPX-108380, the half-maximal effective concentration (EC50) (commonly the concentration needed to bring the measured effect to its halfway point) is less than 1000 nM.

For the origin of these results see PMC4010227 (Journal of computer-aided molecular design, 2010).
